Measured values published in publication PMC12716216, “Characterization of Ligand Binding in Human Serum Albumin from Atomistic Energy Transfer Simulations” (Small Methods, 2025).
pKd: −log10 of the molar value. Where “and” joins values, the source holds several entries; their conditions need not be identical. Equal values may be shown once. Read-outs that look alike come from different tables or passages of the source.

Tests used:
[1] = target: human serum albumin (HSA) (Homo sapiens, UniProt P02768); test: Fluorescence ligand titration of HSA: quenching of intrinsic protein (Trp214) fluorescence, fitted Kd, n and FRET efficiency
Chain of human serum albumin (HSA) (P02768 25-609): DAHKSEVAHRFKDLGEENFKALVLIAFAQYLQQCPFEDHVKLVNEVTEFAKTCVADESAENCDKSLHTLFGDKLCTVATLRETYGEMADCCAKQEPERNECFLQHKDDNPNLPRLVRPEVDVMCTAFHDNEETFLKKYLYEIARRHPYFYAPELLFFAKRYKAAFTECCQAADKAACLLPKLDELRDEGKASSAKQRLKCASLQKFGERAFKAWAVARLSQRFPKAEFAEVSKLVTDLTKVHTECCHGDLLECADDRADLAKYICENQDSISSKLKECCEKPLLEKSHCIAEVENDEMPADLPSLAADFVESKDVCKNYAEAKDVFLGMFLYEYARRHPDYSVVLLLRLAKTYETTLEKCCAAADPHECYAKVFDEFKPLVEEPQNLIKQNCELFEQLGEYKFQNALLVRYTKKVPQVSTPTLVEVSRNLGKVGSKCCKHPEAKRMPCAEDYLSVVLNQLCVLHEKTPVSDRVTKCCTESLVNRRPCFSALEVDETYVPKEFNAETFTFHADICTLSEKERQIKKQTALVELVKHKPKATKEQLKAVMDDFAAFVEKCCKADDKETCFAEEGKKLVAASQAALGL
Procedure: For absorbance and fluorescence, solutions of the ligand, protein, and protein‐ligand complexes at different concentrations were prepared using PBS 1x buffer. […] The fluorescence intensities of protein‐ligand complexes were corrected for inner‐filter effects based on the absorbance of the ligands at the excitation and emission wavelengths ( IDA,cor=IDA10^(Absex+Absem)/2 ).^[ [19] ^] The fluorescence of the ligands in the absence of HSA was also recorded at 100 µM concentration. Spectral overlaps used to compute FRET rates were computed from the measured area‐normalized D emission and A absorption spectra and are reported in the Supporting Information. Protein and ligand solutions were freshly prepared, and titrations were carried out in the cuvette right before the measurement. The average of three measurements for the complexes at each ligand concentration was used to plot the spectra and compute FRET efficiencies following this formula: (10) E=1−IDA/ID where IDA is the intensity of the complex and ID the intensity of HSA in the absence of ligand.
Efficiencies were corrected based on the percentage of protein‐ligand complex formed in each solution, based on the measured Kd values, then final efficiencies were averaged over the three concentrations.

HSA = conditions: cited from earlier work
[2] = 5 µM HSA, PBS 1x, 295 nm excitation, IFE-corrected (carprofen: 280 nm)
[3] = Kd, excitation 280 nm, IFE-corrected
[4] = Kd, excitation 280 nm, no correction
[5] = Kd, excitation 295 nm, no correction
[6] = corrected by fraction of ligand-bound protein, 295 nm excitation, IFE-corrected (carprofen: 280 nm)
[7] = dissociation binding constant Kd, 5 µM HSA, PBS 1x, 25 °C, 295 nm excitation, IFE-corrected (carprofen: 280 nm)
[8] = excitation 280 nm, IFE-corrected
[9] = excitation 280 nm, no correction
[10] = excitation 295 nm, IFE-corrected
[11] = excitation 295 nm, no correction

| SMILES | solute binding parameter n (Hill coefficient) [1, 2] | pKd [1, 3] | pKd [1, 4] | pKd [1, 5] | experimental FRET efficiency E (Eexp) [1, 6] | pKd [1, 7] | Eexp [1, 8] | Eexp [1, 9] | Eexp [1, 10] | Eexp [1, 11] | measured FRET efficiency ([1]; from fluorescence data) [%] | other results |
| --- | --- | --- | --- | --- | --- | --- | --- | --- | --- | --- | --- | --- |
| Oc1cccc2ccccc12 [1‐naphthol] | – | 3.89 | 3.98 | 3.98 | – | 3.86 | – | – | – | – | – | Eexp [1]: 0.83± 0.01 and 0.46± 0.05 and 0.79± 0.03 and 0.54± 0.03; experimental FRET efficiency E (Eexp) [1]: 0.46± 0.05 and 0.46; measured FRET efficiency [1]: 46%; solute binding parameter n (Hill coefficient) [1]: 0.73 |
| O=C(O)c1c2ccccc2nc2ccccc12 [protonated ACA, 9-Acridinecarboxylic acid (protonated)] | – | – | – | – | 0.63 ± 0.02 | – | – | – | – | – | – | – |
| COc1ccc2c(c1)c(CC(=O)O)c(C)n2C(=O)c1ccc(Cl)cc1 [indomethacin] | – | – | – | – | – | – | – | – | – | – | – | pKd (HSA; read-out: Kd previously reported value): 5.21 |
| O=C(O)c1c2ccccc2nc2ccccc12 [ACA, 9‐acridinecarboxylic acid] | 0.67 | 4.76 | 4.68 | 4.74 | 0.63 | 4.81 | 0.64± 0.02 | 0.75± 0.02 | 0.63 ± 0.02 | 0.72± 0.02 | 63 | – |

Further lines, with some results ahead:

| solute binding parameter n (Hill coefficient) [1, 2] | pKd [1, 3] | pKd [1, 4] | pKd [1, 5] | experimental FRET efficiency E (Eexp) [1, 6] | pKd [1, 7] | Eexp [1, 8] | Eexp [1, 9] | Eexp [1, 10] | Eexp [1, 11] | measured FRET efficiency ([1]; from fluorescence data) [%] | SMILES | other results |
| --- | --- | --- | --- | --- | --- | --- | --- | --- | --- | --- | --- | --- |
| 0.33 | 5.41 | 5.25 | 5.30 | 0.55 | 5.46 | 0.45± 0.01 | 0.57± 0.03 | 0.55 ± 0.02 | 0.67± 0.03 | 55 | NCCNc1cccc2ccccc12 [NNE, N‐(1‐naphthyl)ethylenediamine] | experimental FRET efficiency E (Eexp) ([1]; corrected by fraction of ligand-bound protein, 295 nm excitation, IFE-corrected (carprofen: 280 nm), listed as N-(1-Naphthyl)ethylenediamine): 0.55 ± 0.02 |
| 0.48 | – | 5.52 | 5.55 | 0.81 | 5.74 | 0.81 ± 0.03 | 0.89± 0.02 | 0.42± 0.04 | 0.71± 0.03 | 81 | C[C@H](C(=O)O)c1ccc2c(c1)[nH]c1ccc(Cl)cc12 [(S)‐carprofen] | experimental FRET efficiency E (Eexp) ([1]; corrected by fraction of ligand-bound protein, 295 nm excitation, IFE-corrected (carprofen: 280 nm), listed as Carprofen): 0.81 ± 0.03; pKd (HSA; read-out: Kd previous reports): 6.05 to 6.70 |
| 0.71 | 4.19 | 4.11 | 5.16 | 0.80 | 5.18 | 0.71± 0.02 | 0.87± 0.03 | 0.80 ± 0.03 | 0.82± 0.03 | 80 | Oc1ccc2ccccc2c1 [2‐naphthol] | experimental FRET efficiency E (Eexp) ([1]; corrected by fraction of ligand-bound protein, 295 nm excitation, IFE-corrected (carprofen: 280 nm), listed as 2-Naphthol): 0.80 ± 0.03 |
| 0.76 | 4.13 | 4.12 | 4.26 | 0.60 | 4.32 | 0.68± 0.01 | 0.80± 0.01 | 0.60 ± 0.01 | 0.76± 0.01 | 60 | O=C(O)COc1cccc2cccnc12 [QAA, (quinoline‐8‐yloxy)‐acetic acid] | pKd ([1]; Kd, excitation 295 nm, IFE-corrected): 4.32; experimental FRET efficiency E (Eexp) ([1]; corrected by fraction of ligand-bound protein, 295 nm excitation, IFE-corrected (carprofen: 280 nm), listed as (Quinolin-8-yloxy)-acetic acid): 0.60 ± 0.01 |
